The values that follow come from paper PMC3388044, “Probing of Exosites Leads to Novel Inhibitor Scaffolds of HCV NS3/4A Proteinase” (PLoS ONE, 2012).

One experiment has as its target T1, HCV NS3/4A (wild-type) (Hepatitis C virus genotype 1b, UniProt O92972).
T1 construct: The NS3/4A construct represented the individual NS3 proteinase domain N-terminally fused with an NS4A co-factor; 6xHis; purchased AnaSpec (Fremont, CA)
The experiment in a line: NS3/4A activity assay with FRET peptide substrate, wild-type enzyme. It counts as biochemical, HCV genotype 1b, strain HC-J4. The conditions noted are these: wild-type NS3/4A 10 nM, Ac-DE-D(Edans)-EE-Abu-ψ-[COO]-AS-K(Dabsyl)-NH2 10 µM, 30 min pre-incubation; read-out: NS3/4A IC50. An excerpt: (§1) Reagents were purchased from Sigma unless indicated otherwise. The FRET substrate Ac-DE-D(Edans)-EE-Abu-ψ-[COO]-AS-K(Dabsyl)-NH2, purified recombinant wild-type NS3/4A from HCV genotype 1b, strain HC-J4, and the mutants with the V36M, R155K, A156T, D168A and V170A resistance mutations were from AnaSpec (Fremont, CA). The NS3/4A construct represented the individual NS3 proteinase domain N-terminally fused with an NS4A co-factor and tagged with a 6xHis tag. NS3/4A was in active form and the pre-activation by pep-4A or pep4AK was not necessary. Pyroglutamic acid-Arg-Thr-Lys-Arg-7-amino-4-methylcoumarin was from Peptides International (Louisville, KY). West Nile virus NS2B-NS3 proteinase (strain NY99) was expressed, purified and refolded to restore its functional activity as described earlier. The pET15b-Den2-CF40-Gly-NS3pro 185 plasmid encoding the Dengue virus type 2 NS2B-NS3 protease was a kind gift of Dr. Subhash Vasudevan (Program in Emerging Infectious Diseases, DUKE-NUS Graduate Medical School, Singapore). DV NS2B-NS3 proteinase was expressed purified and refolded to restore its functional activity as described previously, [70]. The expression of the soluble C-terminally truncated human furin construct in Sf9 insect cells (an ovarian cell line from fall armyworm Spodoptera frugiperda; Invitrogen, Carlsbad, CA) infected with the recombinant baculovirus and purification of soluble furin from the medium were described earlier. Original human hepatocarcinoma Huh7 cells were obtained from ATCC (Manassas, VA).
The NS3/4A activity assay was performed at 37°C in triplicate in wells of a 96-well plate in 0.2 ml 50 mM HEPES, pH 7.5, containing 100 mM NaCl, 10 mM DTT, 20% glycerol, the Ac-DE-D(Edans)-EE-Abu-ψ-[COO]-AS-K(Dabsyl)-NH2 substrate (10 µM) and the NS3/4A enzyme (10 nM). Reaction velocity was monitored continuously at λex = 355 nm and λem = 500 nm for 10 min using a Spectramax Gemini EM fluorescence spectrophotometer (Molecular Devices, Sunnyvale, CA) and the initial rate of reaction v was recorded for each reaction. There was no significant additional absorption by compounds 1–8 we identified, which might interfere with NS3/4A assay. Compound stock solutions (10 mM) were made in 100% DMSO. Stocks were then diluted using the assay buffer. As a result, the final DMSO concentration was always below 1% in the assay reactions.
(§2) To measure the inhibitory potency of the compounds, their increasing concentrations were pre-incubated with the individual proteinases in the corresponding buffer for 30 min at ambient temperature. At least, 7–9 different concentrations were used for each inhibitor. The residual activity of the enzymes was then measured as above. The IC50 values of the inhibitory compounds were calculated by determining the concentrations of the compounds needed to inhibit 50% of the enzyme activity against the peptide substrate. GraphPad Prism was used as fitting software.

The target in a further experiment is T2, DV2 NS2B-NS3 proteinase (Dengue virus type 2, UniProt P29990).
T2 construct: The pET15b-Den2-CF40-Gly-NS3pro 185 plasmid encoding the Dengue virus type 2 NS2B-NS3 protease; made in house
Kind of experiment: DV2 NS2B-NS3 proteinase activity assay (cross-reactivity). Format: biochemical. The conditions noted are these: pyroglutamic acid-Arg-Thr-Lys-Arg-7-amino-4-methylcoumarin substrate.
From the text: as §1
The activity of furin and both WNV and DV2 NS2B-NS3 proteinases (10 nM each) was measured in triplicate in 0.2 ml 20 mM Tris-HCl buffer, pH 8.0, containing 20% glycerol and 0.005% Brij 35 (for furin – 100 mM HEPES, pH 7.5, containing 1 mM CaCl2, 1 mM β-mercaptoethanol and 0.005% Brij 35) and pyroglutamic acid-Arg-Thr-Lys-Arg-7-amino-4-methylcoumarin (10 µM) as a substrate (λex = 360 nm; λem = 465 nm) as described earlier.
as §2

T2 sequence (P29990 1476-1653): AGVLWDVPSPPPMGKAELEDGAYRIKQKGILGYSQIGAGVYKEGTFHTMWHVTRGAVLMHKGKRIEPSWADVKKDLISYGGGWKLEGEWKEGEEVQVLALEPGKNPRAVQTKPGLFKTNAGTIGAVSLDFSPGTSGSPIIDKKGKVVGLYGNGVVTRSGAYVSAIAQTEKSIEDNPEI
T1 sequence (O92972 1027-1208): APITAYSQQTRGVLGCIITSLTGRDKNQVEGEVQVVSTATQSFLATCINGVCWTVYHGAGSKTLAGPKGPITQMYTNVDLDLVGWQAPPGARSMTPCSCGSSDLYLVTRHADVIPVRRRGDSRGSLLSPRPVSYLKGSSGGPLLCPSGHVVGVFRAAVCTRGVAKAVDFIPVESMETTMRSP

With `S=c1[nH]nc(Nc2nc(SCc3ccccc3)nc3n[nH]c(Cc4nn[nH]n4)c23)s1` [Compound 6], the IC50 on HCV NS3/4A (wild-type) was found to be 0.95 µM; at DV2 NS2B-NS3 proteinase it was 20.6 µM.

`Clc1ccc(Nc2nc(SCc3ccccc3)nc3n[nH]c(Cc4nc5ccccc5s4)c23)cc1` [Compound 5]: the IC50 at HCV NS3/4A (wild-type) stood at 0.38 µM; against DV2 NS2B-NS3 proteinase, 49.4 µM.

`Cc1n[nH]c(=S)n1Nc1nc(SCc2ccccc2)nc2n[nH]c(Cc3nn[nH]n3)c12` [Compound 3]: the IC50 worked out at 0.36 µM on HCV NS3/4A (wild-type) and 34.5 µM against DV2 NS2B-NS3 proteinase.

The compound `Oc1ccccc1-c1nnc2sc3c(Cl)c4nn5c(-c6ccccc6O)nnc5sc4c(Cl)c3nn12` [Compound 4] showed an IC50 on DV2 NS2B-NS3 proteinase of 14.3 µM.

On DV2 NS2B-NS3 proteinase, `S=c1[nH]n2c(COc3cc(Cl)c(OCc4nnc5sc(=S)[nH]n45)cc3Cl)nnc2s1` [Compound 7] yielded an IC50 greater than 100 µM.

The compound `COc1cc(C2C(C(=O)Nc3ccc(Cl)c(Cl)c3)=C(C)NC(C)=C2C(=O)Nc2ccc(Cl)c(Cl)c2)ccc1O` [Compound 8] registered an IC50 on DV2 NS2B-NS3 proteinase of 38.8 µM.

Regarding `Clc1ccc(OCc2nn3c(CCc4nnc5sc(COc6ccc(Cl)cc6)nn45)nnc3s2)cc1` [Compound 2], the IC50 was 0.3 µM on HCV NS3/4A (wild-type) and greater than 100 µM on DV2 NS2B-NS3 proteinase.

`O=C(Nc1ccccc1)c1cc(S(=O)(=O)Nc2nc3ncccc3[nH]2)c(SSc2cc(Cl)c(C(=O)Nc3ccccc3)cc2S(=O)(=O)Nc2nc3ncccc3[nH]2)cc1Cl` [Compound 1]: the IC50 on HCV NS3/4A (wild-type) stood at 0.183 µM; against DV2 NS2B-NS3 proteinase, 19.7 µM.
